Laboratory results reported in PubChem BioAssay AID216 (DTP/NCI, 2004).
Several values for one entry are separate records, joined by “and”; a condition that tells them apart may be missing. Equal entries are not always repeated. Toxic doses and inconclusive results are not listed. Numbered stars: 1 amine (or outer) side, 2 acyl side, 3 side chain; on linkers, the order of the positions; unused ones are H or OH. Bridge positions count the residues as written; N and C are the ends. Square brackets hold non-standard residues; d marks the D form. Peptide text beside a SMILES is read from it. I, II: the chains in the order shown. Actinocin(9to1) = Cc1c2oc3c(C)ccc(C(=O)[*:1])c3nc-2c(C(=O)[*:2])c(N)c1=O; aThr = C[C@H](O)[C@H](N)C(=O)O; NMeV = CN[C@H](C(=O)O)C(C)C; Sar = CNCC(=O)O

System: BDF1 mice, P288 leukemia ip, survival T/C
Test: NCI In Vivo Anticancer Drug Screen. Data for tumor model P288 Lymphocytic Leukemia (intraperitoneal) in B6D2F1 (BDF1) mice
Conditions: higher = longer survival
Protocol: The antitumor activity of compounds was measured in mice bearing transplantable tumors. Survival or tumor size were measured and the results are expressed as the measurement made in the treated group (T) divided by the measurement made in the vehicle treated control group (C). The tumor model used in this assay is P288 Lymphocytic Leukemia (intraperitoneal) in B6D2F1 (BDF1) mice

[1] = endpoint: survival time, mean or median, dose: 0.31 mg/kg/injection, schedule: Q01DX Z (ip), vehicle: carboxymethylcellulose (CMC)
[2] = endpoint: survival time, mean or median, dose: 0.63 mg/kg/injection, schedule: Q01DX Z (ip), vehicle: carboxymethylcellulose (CMC)
[3] = endpoint: survival time, mean or median, dose: 1.25 mg/kg/injection, schedule: Q01DX Z (ip), vehicle: carboxymethylcellulose (CMC)
[4] = endpoint: survival time, mean or median, dose: 2.5 mg/kg/injection, schedule: Q01DX Z (ip), vehicle: carboxymethylcellulose (CMC)
[5] = endpoint: survival time, mean or median, dose: 5.0 mg/kg/injection, schedule: Q01DX Z (ip), vehicle: carboxymethylcellulose (CMC)
[6] = endpoint: survival time, mean or median, dose: 6.25 mg/kg/injection, schedule: Q01DX Z (ip), vehicle: carboxymethylcellulose (CMC)
[7] = endpoint: survival time, mean or median, dose: 12.5 mg/kg/injection, schedule: Q01DX Z (ip), vehicle: carboxymethylcellulose (CMC)

CCN(CC)c1ccc2cc3ccc(=[N+](CC)CC)cc-3oc2c1
T/C (endpoint: survival time, mean or median, dose: 0.08 mg/kg/injection, schedule: Q01DX Z (ip), vehicle: carboxymethylcellulose (CMC)): 110 % of control | T/C (endpoint: survival time, mean or median, dose: 0.16 mg/kg/injection, schedule: Q01DX Z (ip), vehicle: carboxymethylcellulose (CMC)): 90 % of control | T/C [1]: 108 % of control | T/C (endpoint: survival time, mean or median, dose: 0.32 mg/kg/injection, schedule: Q01DX Z (ip), vehicle: carboxymethylcellulose (CMC)): 96 % of control | T/C [2]: 100 % of control | T/C [3]: 106 % of control | T/C [4]: 102 % of control | T/C [5]: 115 % of control and 117 % of control

CS(=O)(=O)OCCCl
T/C (endpoint: survival time, mean or median, dose: 3.1 mg/kg/injection, schedule: Q01DX Z (ip), vehicle: carboxymethylcellulose (CMC)): 88 % of control | T/C [6]: 89 % of control | T/C [7]: 86 % of control and 89 % of control | T/C (endpoint: survival time, mean or median, dose: 18.8 mg/kg/injection, schedule: Q01DX010 (ip), vehicle: saline): 88 % of control and 95 % of control | T/C (endpoint: survival time, mean or median, dose: 37.5 mg/kg/injection, schedule: Q01DX010 (ip), vehicle: saline): 90 % of control and 94 % of control | T/C (endpoint: survival time, mean or median, dose: 75.0 mg/kg/injection, schedule: Q01DX010 (ip), vehicle: saline): 90 % of control and 100 % of control | T/C (endpoint: survival time, mean or median, dose: 150.0 mg/kg/injection, schedule: Q01DX010 (ip), vehicle: saline): 105 % of control and 90 % of control

CN(C)c1ccc(Nc2c3ccccc3nc3ccccc23)cc1
T/C [6]: 115 % of control | T/C [7]: 105 % of control | T/C (endpoint: survival time, mean or median, dose: 25.0 mg/kg/injection, schedule: Q01DX Z (ip), vehicle: carboxymethylcellulose (CMC)): 112 % of control | T/C (endpoint: survival time, mean or median, dose: 36.0 mg/kg/injection, schedule: Q01DX010 (ip), vehicle: saline): 100 % of control | T/C (endpoint: survival time, mean or median, dose: 50.0 mg/kg/injection, schedule: Q01DX Z (ip), vehicle: carboxymethylcellulose (CMC)): 123 % of control and 98 % of control | T/C (endpoint: survival time, mean or median, dose: 54.0 mg/kg/injection, schedule: Q01DX010 (ip), vehicle: saline): 111 % of control | T/C (endpoint: survival time, mean or median, dose: 100.0 mg/kg/injection, schedule: Q01DX Z (ip), vehicle: carboxymethylcellulose (CMC)): 117 % of control | T/C (endpoint: survival time, mean or median, dose: 120.0 mg/kg/injection, schedule: Q01DX010 (ip), vehicle: saline): 88 % of control | T/C (endpoint: survival time, mean or median, dose: 200.0 mg/kg/injection, schedule: Q01DX Z (ip), vehicle: carboxymethylcellulose (CMC)): 92 % of control

OCC1OC(n2cnc3c(=S)nc[nH]c32)C(O)C1O (stereo not given)
T/C (endpoint: survival time, mean or median, dose: 16.0 mg/kg/injection, schedule: Q01DX Z (ip), vehicle: carboxymethylcellulose (CMC)): 94 % of control | T/C (endpoint: survival time, mean or median, dose: 31.0 mg/kg/injection, schedule: Q01DX Z (ip), vehicle: carboxymethylcellulose (CMC)): 94 % of control | T/C (endpoint: survival time, mean or median, dose: 62.5 mg/kg/injection, schedule: Q01DX Z (ip), vehicle: carboxymethylcellulose (CMC)): 109 % of control | T/C (endpoint: survival time, mean or median, dose: 125.0 mg/kg/injection, schedule: Q01DX Z (ip), vehicle: carboxymethylcellulose (CMC)): 97 % of control | T/C (endpoint: survival time, mean or median, dose: 250.0 mg/kg/injection, schedule: Q01DX Z (ip), vehicle: carboxymethylcellulose (CMC)): 92 % of control

O=C(Nc1ccc(C2=NCCCN2)cc1)c1ccc(NC(=O)c2ccc(C3=NCCCN3)cc2)cc1
T/C (endpoint: survival time, mean or median, dose: 0.24 mg/kg/injection, schedule: Q01DX Z (ip), vehicle: carboxymethylcellulose (CMC)): 113 % of control | T/C (endpoint: survival time, mean or median, dose: 0.49 mg/kg/injection, schedule: Q01DX Z (ip), vehicle: carboxymethylcellulose (CMC)): 94 % of control | T/C (endpoint: survival time, mean or median, dose: 0.98 mg/kg/injection, schedule: Q01DX Z (ip), vehicle: carboxymethylcellulose (CMC)): 121 % of control | T/C (endpoint: survival time, mean or median, dose: 1.0 mg/kg/injection, schedule: Q01DX010 (ip), vehicle: other): 120 % of control | T/C (endpoint: survival time, mean or median, dose: 1.95 mg/kg/injection, schedule: Q01DX Z (ip), vehicle: carboxymethylcellulose (CMC)): 119 % of control | T/C (endpoint: survival time, mean or median, dose: 2.0 mg/kg/injection, schedule: Q01DX010 (ip), vehicle: other): 124 % of control | T/C (endpoint: survival time, mean or median, dose: 3.9 mg/kg/injection, schedule: Q01DX Z (ip), vehicle: carboxymethylcellulose (CMC)): 183 % of control | T/C (endpoint: survival time, mean or median, dose: 4.0 mg/kg/injection, schedule: Q01DX010 (ip), vehicle: other): 184 % of control and 237 % of control | T/C (endpoint: survival time, mean or median, dose: 7.8 mg/kg/injection, schedule: Q01DX Z (ip), vehicle: carboxymethylcellulose (CMC)): 245 % of control | T/C (endpoint: survival time, mean or median, dose: 8.0 mg/kg/injection, schedule: Q01DX010 (ip), vehicle: other): 237 % of control and 284 % of control | T/C (endpoint: survival time, mean or median, dose: 15.6 mg/kg/injection, schedule: Q01DX Z (ip), vehicle: carboxymethylcellulose (CMC)): 156 % of control | T/C (endpoint: survival time, mean or median, dose: 16.0 mg/kg/injection, schedule: Q01DX010 (ip), vehicle: other): 92 % of control | T/C (endpoint: survival time, mean or median, dose: 31.25 mg/kg/injection, schedule: Q01DX Z (ip), vehicle: carboxymethylcellulose (CMC)): 103 % of control

NC(Cc1ccc(N(CCCl)CCCl)cc1)C(=O)O (stereo not given)
T/C [1]: 90 % of control | T/C [2]: 111 % of control | T/C (endpoint: survival time, mean or median, dose: 1.25 mg/kg/injection, schedule: Q01DX010 (ip), vehicle: saline): 112 % of control | T/C [3]: 110 % of control | T/C (endpoint: survival time, mean or median, dose: 2.0 mg/kg/injection, schedule: Q01DX010 (ip), vehicle: saline): 172 % of control | T/C [4]: 105 % of control | T/C (endpoint: survival time, mean or median, dose: 4.0 mg/kg/injection, schedule: Q01DX010 (ip), vehicle: saline): 188 % of control | T/C (endpoint: survival time, mean or median, dose: 5.0 mg/kg/injection, schedule: Q01DX010 (ip), vehicle: saline): 150 % of control | T/C [5]: 97 % of control | T/C (endpoint: survival time, mean or median, dose: 10.0 mg/kg/injection, schedule: Q01DX010 (ip), vehicle: saline): 187 % of control | T/C (endpoint: survival time, mean or median, dose: 10.0 mg/kg/injection, schedule: Q01DX Z (ip), vehicle: carboxymethylcellulose (CMC)): 97 % of control | T/C (endpoint: survival time, mean or median, dose: 16.0 mg/kg/injection, schedule: Q01DX010 (ip), vehicle: saline): 88 % of control

Cc1c2oc3c(C)ccc(C(=O)N[C@@H]4C(=O)N[C@H](C(C)C)C(=O)N5CCC[C@H]5C(=O)N(C)CC(=O)N(C)[C@@H](C(C)C)C(=O)O[C@H]4C)c3nc-2c(C(=O)N[C@@H]2C(=O)N[C@H](C(C)C)C(=O)N3CCC[C@H]3C(=O)N(C)CC(=O)N(C)[C@@H](C(C)C)C(=O)O[C@H]2C)c(N)c1=O (I: [aThr][dV]P[Sar][NMeV] / II: [aThr][dV]P[Sar][NMeV]; ester I:1-I:C, II:1-II:C; linker I:N-II:N via Actinocin(9to1))
T/C (endpoint: survival time, mean or median, dose: 0.05 mg/kg/injection, schedule: Q01DX010 (ip), vehicle: other): 155 % of control

CN(Cc1cnc2nc(N)nc(N)c2n1)c1ccc(C(=O)N[C@@H](CCC(=O)O)C(=O)O)cc1
T/C (endpoint: median survival time, dose: 0.38 mg/kg/injection, schedule: Q01DX009 (ip), vehicle: sodium bicarbonate): 183 % of control | T/C (endpoint: median survival time, dose: 0.75 mg/kg/injection, schedule: Q01DX009 (ip), vehicle: sodium bicarbonate): 191 % of control | T/C (endpoint: median survival time, dose: 1.5 mg/kg/injection, schedule: Q01DX009 (ip), vehicle: sodium bicarbonate): 220 % of control | T/C (endpoint: median survival time, dose: 3.0 mg/kg/injection, schedule: Q01DX009 (ip), vehicle: sodium bicarbonate): 91 % of control | T/C (endpoint: median survival time, dose: 6.0 mg/kg/injection, schedule: Q01DX009 (ip), vehicle: sodium bicarbonate): 154 % of control | T/C (endpoint: survival time, mean or median, dose: 0.31 mg/kg/injection, schedule: Q01DX Z (ip), vehicle: other): 123 % of control | T/C (endpoint: survival time, mean or median, dose: 0.38 mg/kg/injection, schedule: Q01DX010 (ip), vehicle: other): 162 % of control and 167 % of control and 193 % of control | T/C (endpoint: survival time, mean or median, dose: 0.62 mg/kg/injection, schedule: Q01DX Z (ip), vehicle: other): 189 % of control and 222 % of control | T/C (endpoint: survival time, mean or median, dose: 0.75 mg/kg/injection, schedule: Q01DX010 (ip), vehicle: other): 176 % of control and 228 % of control and 235 % of control | T/C (endpoint: survival time, mean or median, dose: 1.25 mg/kg/injection, schedule: Q01DX Z (ip), vehicle: other): 219 % of control and 256 % of control and 261 % of control | T/C (endpoint: survival time, mean or median, dose: 1.5 mg/kg/injection, schedule: Q01DX010 (ip), vehicle: other): 229 % of control and 230 % of control (2×) | T/C (endpoint: survival time, mean or median, dose: 1.5 mg/kg/injection, schedule: Q01DX Z (ip), vehicle: other): 158 % of control | T/C (endpoint: survival time, mean or median, dose: 2.5 mg/kg/injection, schedule: Q01DX Z (ip), vehicle: other): 205 % of control and 244 % of control | T/C (endpoint: survival time, mean or median, dose: 3.0 mg/kg/injection, schedule: Q01DX010 (ip), vehicle: other): 186 % of control | T/C (endpoint: survival time, mean or median, dose: 5.0 mg/kg/injection, schedule: Q01DX Z (ip), vehicle: other): 116 % of control
